From US8003357B2, “Acidophilic enzymes” (Helmholtz-Zentrum Fuer Infektionsforschung GmbH, priority 2005, dated 2011)

How the values were obtained:
[1] = tested on: EstFA (acidic esterase); test: Effect of cations and inhibitors on recombinant EstFA activity; assay type: biochemical, Ferroplasma acidiphilum; set-up: substitution of Fe^2+ in EstFA: dose or concentration left out as unconfirmed; settings: for substitution of Fe^2+ in EstFA: as chloride salts
Protocol: The enzymes used for the tests were heterologously expressed in E. coli using genomic coding sequences obtained from Ferroplasma acidiphilum.
(§1) The acidic enzymes according to the invention were expressed in E. coli using the genomiccoding sequence for the respective enzyme from Ferroplasma acidiphilum, which are described in detail below. For enzymatic conversions, reaction conditions were in 100 mM sodium acetate buffer, 100 mM citrate buffer, 100 mM HEPES buffer for 2 minutes at 30° C., using p-nitrophenol propionate as the substrate for esterase, starch in the case of glycosidases, and HindIII digested λ DNA for ligase.

[2] = tested on: αGluFA (acidic glucosidase); test: Effect of cations and inhibitors on recombinant αGluFA activity; assay type: biochemical, Ferroplasma acidiphilum
Protocol: as §1, with “The enzymes used for the tests were heterologously expressed in E. coli using genomic coding sequences obtained from Ferroplasma acidiphilum. The” for “The”

[3] = tested on: LigFA (acidic ligase); test: Effect of cations and inhibitors on recombinant LigFA activity; assay type: biochemical, Ferroplasma acidiphilum
Protocol: as §1, with “The enzymes used for the tests were heterologously expressed in E. coli using genomic coding sequences obtained from Ferroplasma acidiphilum. The” for “The”

[4] = biological target: EstFA (Ferroplasma acidiphilum, UniProt Q2PCE5); test: Enantioselectivity of EstFA towards chiral esters and lactones; assay type: biochemical; settings: for % c / % e.e.: 100 mM citrate buffer pH 2.0, 5 μg EstFA, 10 hours; for E: enantioselectivity
Protocol: For an estimation of enantioselectivity of EstFA towards chiral esters and lactones, a number of primary and secondary alcohols as well as carboxylic acids and lactones were hydrolysed.
The above substrate specificities were tested in 96-well plates, using 100 mM citrate buffer (pH 2.0) in the presence of 5 μg pure EstFA. For the substrate, the concentrations between 10 nM and 10 mM were chosen. Progress of the reaction was followed by spectrophotometry using p-nitrophenol propionate as an indicator. The reaction was stopped after 10 hours by adjusting the pH to 8.0 by adding sodium hydroxide from a 100 mM stock solution and phenol red (0.8 mM) as a pH indicator. […] Ester hydrolysis of enantiomerically pure esters was measured colorimetrically in 5.0 mM EPPS buffer (N-(2-hydroxyethyl) piperazine-N′-(3′-propanesulfonic acid) at pH 8.0 and phenol red after termination of the reaction.

[5] = biological target: αGluFA (Ferroplasma acidiphilum, UniProt Q5K3Q3); test: Hydrolysis of glycosidic substrates by αGluFA; assay type: biochemical; settings: pH 3.0, 50° C., 100 μM FeCl2
Protocol: A variety of glycosidic substrates were examined for hydrolysis by αGluFA and kinetic constants were determined. For the assay, heterologously expressed αGluFA was incubated in 100 mM sodium citrate buffer, pH 3.0, containing 1% substrate, 100 μM FeCl2 and 5 μg αGluFA. […] Analysis was done by HPLC. Sample blanks were used for correction of spontaneous release of reducing sugar.
As substrates, sucrose, starch, amylose, amylopectin, pullulan and dextrin were used, the release of reducing sugars could also be determined by the dinitrosalicylic acid method, i.e. adding dinitrosalicylic acid solution to the reaction mixture, heating to 85° C. for 30 minutes, dilution with water and measuring absorbance at 450 nm. Activity towards p-nitrophenol α/β diglucopyranoside could be measured spectrophotometrically by following the absorbance at 346 nm using a molar extinction coefficient of 4800.

Chain of αGluFA (Q5K3Q3 entry or part of it): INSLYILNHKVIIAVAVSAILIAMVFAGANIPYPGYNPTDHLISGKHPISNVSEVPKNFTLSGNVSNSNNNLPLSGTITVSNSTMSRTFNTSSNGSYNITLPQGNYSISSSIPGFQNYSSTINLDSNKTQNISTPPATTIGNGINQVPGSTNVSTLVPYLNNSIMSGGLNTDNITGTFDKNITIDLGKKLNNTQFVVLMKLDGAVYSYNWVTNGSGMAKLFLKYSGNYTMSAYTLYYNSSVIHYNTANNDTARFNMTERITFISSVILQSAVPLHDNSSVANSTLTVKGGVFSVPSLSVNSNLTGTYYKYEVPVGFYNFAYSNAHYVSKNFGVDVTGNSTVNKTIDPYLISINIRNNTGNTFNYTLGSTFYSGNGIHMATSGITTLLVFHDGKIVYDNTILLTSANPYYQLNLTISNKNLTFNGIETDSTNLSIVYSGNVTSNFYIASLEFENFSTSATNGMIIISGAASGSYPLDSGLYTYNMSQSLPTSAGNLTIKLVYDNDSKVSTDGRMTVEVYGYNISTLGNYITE
Chain of EstFA (Q2PCE5 entry or part of it): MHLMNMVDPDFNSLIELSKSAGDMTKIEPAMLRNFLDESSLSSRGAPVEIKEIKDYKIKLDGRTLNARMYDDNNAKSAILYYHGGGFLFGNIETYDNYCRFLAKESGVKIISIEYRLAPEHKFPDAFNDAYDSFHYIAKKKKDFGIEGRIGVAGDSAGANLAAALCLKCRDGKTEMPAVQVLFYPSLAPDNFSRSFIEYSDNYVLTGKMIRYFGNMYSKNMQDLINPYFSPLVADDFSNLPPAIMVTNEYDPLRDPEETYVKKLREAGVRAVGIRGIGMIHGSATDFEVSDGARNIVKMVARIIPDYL

| Molecule | Activity (%) EstFA ([1]; additive 10 mM) [%] | Activity (%) EstFA ([1]; additive 125 mM) [%] | Activity (%) αGluFα ([2]; additive 10 mM) [%] | Activity (%) αGluFα ([2]; additive 125 mM) [%] | Activity (%) LigFA ([3]; additive 10 mM) [%] | Activity (%) LigFA ([3]; additive 125 mM) [%] | % c [4] [%] | % e.e. [4] [%] | E [4] | further results |
| --- | --- | --- | --- | --- | --- | --- | --- | --- | --- | --- |
| O=C(O)CN(CCN(CC(=O)O)CC(=O)O)CC(=O)O [EDTA] | 16.0 | 9.5 | 10.6 | 9.4 | 17.2 | 7.0 | – | – | – | effect of complexing Fe^2+ on EstFA activity ([1]; added EDTA): inhibited the activity of EstFA in a reversible manner |
| COC(=O)[C@H](C)N [alanine methylester] | – | – | – | – | – | – | 8.71 | 2.5 | 3.8 | – |
| [Mn+2] [manganese] | – | – | – | – | – | – | – | – | – | substitution of Fe^2+ in EstFA [1]: could not substitute Fe^2+ |
| COC(=O)CC(C)O (centres unmarked) [methyl-3-hydroxybutyrate] | – | – | – | – | – | – | 26.2 | 98 | 42.8 | – |
| [Ca+2] [Ca^2+] | 116.3 | 100.8 | 91.2 | 74.1 | 126.2 | 81.6 | – | – | – | substitution of Fe^2+ in EstFA [1]: could not substitute Fe^2+ |
| [Zn+2] [Zn^2+] | 57.8 | 4.6 | 1.1 | 16.2 | 5.3 | 10.2 | – | – | – | – |
| OCCS [mercaptoethanol] | – | – | – | – | – | – | – | – | – | Activity (%) EstFA ([1]; additive 1 mM): 55% |
| [Na+] [Na^+] | 102.8 | 91.2 | 86.3 | 74.0 | 71.1 | 100 | – | – | – | – |
| soluble starch | – | – | – | – | – | – | – | – | – | Kcat [5]: 94.0 ± 11^ s^−1; Km [5]: 0.11 ± 0.02 mg/mL |
| CC(=O)OC1CC(C)CCC1C(C)C (centres unmarked) [menthyl acetate] | – | – | – | – | – | – | 42.2 | 78.4 | 14.7 | – |
| [Cl][Ni][Cl] [nickel] | – | – | – | – | – | – | – | – | – | substitution of Fe^2+ in EstFA [1]: could not substitute Fe^2+ |
| [Mg+2] [Mg^2+] | 106.1 | 116.8 | 92.2 | 64.7 | 157.0 | 126.8 | – | – | – | substitution of Fe^2+ in EstFA [1]: could not substitute Fe^2+ |
| COC(=O)C(C)CO (centres unmarked) [methyl-3-hydroxy-2-methylpropionate] | – | – | – | – | – | – | 30.8 | 98 | 116.2 | – |
| [Co+2] [Co^2+] | 55.2 | 68.3 | 72.0 | 82.8 | 102.5 | 88.7 | – | – | – | substitution of Fe^2+ in EstFA [1]: could not substitute Fe^2+ |
| amylopectin | – | – | – | – | – | – | – | – | – | Kcat [5]: 89 ± 10.5 s⁻¹; Km [5]: 1.05 ± 0.19 mg/mL |
| CCCC(=O)OC(C)c1ccccc1 (centres unmarked) [1-phenyl ethylbutyrate] | – | – | – | – | – | – | 36.2 | 33.7 | 2.4 | – |
| pullulan | – | – | – | – | – | – | – | – | – | Kcat [5]: 2.8 ± 0.1 s⁻¹; Km [5]: 11.0 ± 0.1 mg/mL |
| CCCCCCCCCCCCOS(=O)(=O)[O-].[Na+] [SDS] | 75.2 | – | 2.4 | – | 32.6 | – | – | – | – | Activity (%) EstFA ([1]; additive 50 mM): 47.3%; Activity (%) αGluFα ([2]; additive 50 mM): 0.5%; Activity (%) LigFA ([3]; additive 50 mM): 27.5% |
| dextrin | – | – | – | – | – | – | – | – | – | Kcat [5]: 93.0 ± 11^ s^−1; Km [5]: 0.221 ± 0.03 mg/mL |
| [K+] [K^+] | 108.5 | 115.7 | 86.0 | 76.3 | 129.9 | 93.8 | – | – | – | – |
| Triton X-100 | – | – | – | – | – | – | – | – | – | Activity (%) EstFA ([1]; additive 1%): 74.6%; Activity (%) EstFA ([1]; additive 3%): 43.5%; Activity (%) αGluFα ([2]; additive 1%): 95.7%; Activity (%) αGluFα ([2]; additive 3%): 47.4%; Activity (%) LigFA ([3]; additive 1%): 62.3%; Activity (%) LigFA ([3]; additive 3%): 9.0% |
| COC(=O)[C@@H](N)Cc1c[nH]c2ccccc12 [tryptophane methylester] | – | – | – | – | – | – | 4.33 | 2.12 | 1.1 | – |
| O=C1CCC(CO)O1 (centres unmarked) [dihydro-5-hydroxymethyl-2(3H)-furanone] | – | – | – | – | – | – | 39.3 | 88.6 | 29.7 | – |
| CC1(C)COC(=O)C1O (centres unmarked) [pantolactone] | – | – | – | – | – | – | 10.06 | 39.36 | 2.40 | – |
| N [NH4^+] | 85.2 | 97.1 | 103.8 | 58.8 | 107.2 | 108.2 | – | – | – | – |
| [Sr+2] [Sr^2+] | 102.1 | 106.5 | 98.0 | 71.3 | 90.7 | 20.2 | – | – | – | – |
| CCCC(=O)OCC1COC(C)(C)O1 (centres unmarked) [solketal butyrate] | – | – | – | – | – | – | 29.0 | 74.46 | 9.2 | – |
| [Li+] [Li^+] | 100.2 | 48.0 | 107.2 | 69.4 | 101.6 | 107.9 | – | – | – | – |
| COC(=O)C(C)O (centres unmarked) [methyl lactate] | – | – | – | – | – | – | 3.4 | 2.38 | 1.1 | – |
| amylose | – | – | – | – | – | – | – | – | – | Kcat [5]: 126.0 ± 7.5 s⁻¹; Km [5]: 7.49 ± 0.88 mg/mL |
